Measurements taken from US9655870B2, “Homeopathic drug composition and methods of use thereof” (priority 2002, dated 2017).

Legend:
HL60 tumor cells = conditions: in vitro; mediated by increase in surface TNF-alpha; cited from earlier work
[1] = Single-dose toxicity study; conditions: both sexes, mouse, in vivo, IV bolus, adult male and female CD-1 mice, read-out: maximally tolerated dose (MTD)
Procedure: (§1) Thus, the toxic doses levels of the compounds appear high (assuming a similar biochemical pathway and not correcting for a different surface-area-to-weight ratio), a dose of 9,975 mg (9.9 g) would not be lethal for a 75-kg person.

animals = experiment: Repeated daily dose toxicity study (Dovetail Technologies, Inc.); type: in vivo
Procedure: as §1

[2] = test system: granzyme activity in T cells; conditions: cited from earlier work
[3] = test system: patients with at least moderate allergies; experiment: Allergy study (Example 2); type: in vivo, human
Source text: Table 3. Table 3 is the clinical data from all patients who reported at least moderate allergies at the pre-study.

normal volunteers = experiment: Double-blind placebo-controlled homeopathic proving; type: in vivo, human
Procedure: Safety: As of Mar. […] As of Jul. […] Many of those patients report improvements in their conditions (see below)
Thirty-nine (39) patients have completed the first homeopathic proving trial. The study design was a true double blind and placebo-controlled.
This double-blind placebo-controlled “proving” study was performed by David Riley. (Riley, Proving Report—Taurox SB. David Riley, M.D., Integrative Medicine Institute, Apr. 16, 2001, incorporated by reference in its entirety herein).

O=C(CCNC(=O)OCc1ccccc1)NCCS(=O)(=O)O [Taurox SB]
killing of HL60 tumor cells (HL60 tumor cells): able to effect killing of HL60 tumor cells
MTD [1]: ~150 mg/kg
morbidity/mortality (animals; 400 ug/kg daily for 9 days, 14-day post-administration period): no morbidity/mortality
weight gain (animals; 400 ug/kg daily for 9 days, 14-day post-administration period, compared to saline-injected controls): all gained the appropriate amount of weight
gross necropsies (animals; 400 ug/kg daily for 9 days, following euthanasia): no abnormal findings
toxic side effects (animals; oral daily doses of 400 ug/kg for 9 days): no toxic side effects were observed
toxic side effects (animals; subcutaneous daily doses of 400 ug/kg for 9 days): no toxic side effects were observed
granzyme activity in T cells [2]: increased granzyme activity
average reduction in allergy symptom frequency ([3]; five of the eight patients, p=0.017): 82%
Allergy (lower numbers indicates less frequent allergies) ([3]; patient 102, week 0): 10
Allergy (lower numbers indicates less frequent allergies) ([3]; patient 102, week 1): 10
Allergy (lower numbers indicates less frequent allergies) ([3]; patient 102, week 2): 10
Allergy (lower numbers indicates less frequent allergies) ([3]; patient 102, week 3): 10
Allergy (lower numbers indicates less frequent allergies) ([3]; patient 102, week 4): 10
Allergy (lower numbers indicates less frequent allergies) ([3]; patient 102, week 6): 8.5
Allergy (lower numbers indicates less frequent allergies) ([3]; patient 102, week 7): 8.5
Allergy (lower numbers indicates less frequent allergies) ([3]; patient 102, week 8): 8.5
Allergy (lower numbers indicates less frequent allergies) ([3]; patient 102, week 9): 8.5
Allergy (lower numbers indicates less frequent allergies) ([3]; patient 102, week 10): 10
Allergy (lower numbers indicates less frequent allergies) ([3]; patient 102, week 11): 10
Allergy (lower numbers indicates less frequent allergies) ([3]; patient 103, week 0): 8
Allergy (lower numbers indicates less frequent allergies) ([3]; patient 103, week 1): 7
Allergy (lower numbers indicates less frequent allergies) ([3]; patient 103, week 2): 3
Allergy (lower numbers indicates less frequent allergies) ([3]; patient 103, week 5): 3
Allergy (lower numbers indicates less frequent allergies) ([3]; patient 103, week 7): 3
Allergy (lower numbers indicates less frequent allergies) ([3]; patient 103, week 8): 3
Allergy (lower numbers indicates less frequent allergies) ([3]; patient 103, week 9): 3
Allergy (lower numbers indicates less frequent allergies) ([3]; patient 201, week 0): 10
Allergy (lower numbers indicates less frequent allergies) ([3]; patient 201, week 1): 5
Allergy (lower numbers indicates less frequent allergies) ([3]; patient 201, week 2): 1
Allergy (lower numbers indicates less frequent allergies) ([3]; patient 201, week 3): 0
Allergy (lower numbers indicates less frequent allergies) ([3]; patient 201, week 4): 1
allergy symptoms ([3]; patient 401, 8X dose for 3 months): less frequent and less severe
Allergy (lower numbers indicates less frequent allergies) ([3]; patient 401, week 0): 9
Allergy (lower numbers indicates less frequent allergies) ([3]; patient 401, week 1): 9
Allergy (lower numbers indicates less frequent allergies) ([3]; patient 401, week 3): 3
Allergy (lower numbers indicates less frequent allergies) ([3]; patient 401, week 5): 3
Allergy (lower numbers indicates less frequent allergies) ([3]; patient 401, week 6): 2
Allergy (lower numbers indicates less frequent allergies) ([3]; patient 401, week 7): 2
Allergy (lower numbers indicates less frequent allergies) ([3]; patient 401, week 9): 3
Allergy (lower numbers indicates less frequent allergies) ([3]; patient 401, week 10): 4
Allergy (lower numbers indicates less frequent allergies) ([3]; patient 401, week 11): 3
Allergy (lower numbers indicates less frequent allergies) ([3]; patient 402, week 0): 6
Allergy (lower numbers indicates less frequent allergies) ([3]; patient 402, week 1): 3
Allergy (lower numbers indicates less frequent allergies) ([3]; patient 402, week 2): 2
Allergy (lower numbers indicates less frequent allergies) ([3]; patient 402, week 3): 2
Allergy (lower numbers indicates less frequent allergies) ([3]; patient 402, week 4): 3
Allergy (lower numbers indicates less frequent allergies) ([3]; patient 701, week 0): 10
Allergy (lower numbers indicates less frequent allergies) ([3]; patient 701, week 2): 10
Allergy (lower numbers indicates less frequent allergies) ([3]; patient 701, week 3): 10
Allergy (lower numbers indicates less frequent allergies) ([3]; patient 701, week 4): 10
Allergy (lower numbers indicates less frequent allergies) ([3]; patient 701, week 5): 10
Allergy (lower numbers indicates less frequent allergies) ([3]; patient 701, week 6): 10
severe allergic response to known allergens ([3]; patient 702, 8X dose): marked reduction
Allergy (lower numbers indicates less frequent allergies) ([3]; patient 702, week 0): 10
Allergy (lower numbers indicates less frequent allergies) ([3]; patient 702, week 1): 10
Allergy (lower numbers indicates less frequent allergies) ([3]; patient 702, week 2): 10
Allergy (lower numbers indicates less frequent allergies) ([3]; patient 702, week 3): 5
Allergy (lower numbers indicates less frequent allergies) ([3]; patient 702, week 4): 6
Allergy (lower numbers indicates less frequent allergies) ([3]; patient 702, week 5): 3
Allergy (lower numbers indicates less frequent allergies) ([3]; patient 703, week 0): 10
Allergy (lower numbers indicates less frequent allergies) ([3]; patient 703, week 1): 10
Allergy (lower numbers indicates less frequent allergies) ([3]; patient 703, week 2): 10
Allergy (lower numbers indicates less frequent allergies) ([3]; patient 703, week 3): 10
Allergy (lower numbers indicates less frequent allergies) ([3]; patient 703, week 4): 10
Allergy (lower numbers indicates less frequent allergies) ([3]; patient 703, week 5): 10
Allergy (lower numbers indicates less frequent allergies) ([3]; patient 703, week 6): 10
Allergy (lower numbers indicates less frequent allergies) ([3]; patient 703, week 7): 10
Allergy (lower numbers indicates less frequent allergies) ([3]; patient 703, week 8): 10
allergies, most patients of Table 3 ([3]; patients with at least moderate allergies at pre-study): decrease in allergies
severe adverse effects (normal volunteers; 39 normal volunteers, 14 to 28 doses): without any severe adverse effects
subjects identified as having physiologic affects by the blinded evaluating physician (normal volunteers; placebo 26%): 92%
